The text below walks through data of PMC10587169, “Tuning aminopolycarboxylate chelators for efficient complexation of trivalent actinides” (Scientific Reports, 2023).

Like-named read-outs stand apart in the source and are kept apart here. Marks after values point to notes of the source that are not given here.

Data set [1] can be described thus: Potentiometric titration, acid dissociation constants. It counts as physicochemical. The note with it: aqueous 2.0 M (Na+/H+)ClO4 electrolyte solution. The procedure:
All potentiometric titrations were run using a Mettler Toledo T90 autotitrator equipped with an Orion Ross Semi-micro glass electrode with the junction stabilization solution changed to 5.0 M NaCl to prevent precipitation with perchlorate media. All titrations were performed under a hydrated nitrogen atmosphere. The forward titration measurements (acidic titrand, basic titrant) of H4octapa in nitrate electrolyte medium were performed as described previously due to the limited solubility of this ligand in a 2 M (Na^+/H^+)ClO4 medium. Acid dissociation constants of H4octapa in perchlorate electrolyte medium were also determined by titrating in reverse (basic titrand, acidic titrant) to alleviate the solubility concerns. Titrations of H4pypa-peg were performed in reduced-volume glass titration cups (10 mL nominal) due to the limited supply of this ligand. All potentiometric titrations were run in triplicate. The choice of using p[H^+] was explained in Heathman et al.[15], and the calibration of the p[H^+] scale utilized Gran analysis through titration of a strong acid with the base used in the potentiometric titrations[29]–[31]. Potentiometric titration data was modeled and analyzed using Hyperquad2013 to determine acid dissociation and metal complexation stability constants[32],[33].
Changes in hydrogen ion concentration were monitored using a glass electrode for a solution of H4octapa as either NaOH or HClO4 were titrated into the solutions. […] The experimental potentiometric curve collected for a forward titration of H4octapa in (Na^+/H^+)NO3 is presented in Fig. 3A, alongside the distribution curves for the identified HnL species. Following those studies, the acid/base conditions were reversed and octapa^4− was titrated in 2.0 M (Na^+/H^+)ClO4 using HClO4 (SI Figure S7). The potentiometric curves are well respresented by five proton dissociation equilibria. The calculated equilibrium constants correspond with the protonation reactions for two aliphatic amines, two pyridine nitrogens, and one carboxylate group with the protonation sequence described by Eq. (2). The acid dissociation constants (pKa = − log10Ka) for H4octapa are reported in Table 1 alongside previously reported values in the literature.
The experimental potentiometric titration curve and the distribution curves for the associated HnL species for H4pypa-peg are presented in Fig. 3B. […] For comparison, the protonation equilibria of H4edta were also studied in 2.0 M (Na^+/H^+)ClO4. The pKa values for H4edta are listed in Table 2 and collected potentiometric titration curves (forward and reverse) are presented in SI Figure S8. For H4pypa-peg coordination pocket the protonation of H9L^5+, H7L^3+, and H6L^2+ cannot be characterized using a glass electrode. The H6L^2+ species likely represents a protonated carboxylate group, while H5L^+ and H4L may describe the pyridinecarboxylate nitrogens. The equilibrium involving H3L^− likely describes the dissociation of the protonated pyridine nitrogen, while the two most basic species in this ligand (HL^3− and H2L^2−) are likely the bridging amines in the H4pypa-peg backbone. Equation (3) describes the protonation sequence for H4pypa-peg.3 H10-aL^+6-a⇆H9-aL^+5-a+H^+Ka=H^+·H9-aL^+5-a/H10-aL^+6-aa=1…9

Data set [2] can be described thus: Spectrophotometric titration. It counts as binding. The note with it: spectrophotometrically determined in 2.0 M (Na+/H+)ClO4, 20 °C. The source says:
Changes in the optical absorption characteristics of Nd^3+ were monitored using a Cary 6000i UV/Vis–NIR Spectrometer (Agilent) using 1 cm semimicro quartz cuvettes (Starna) in double-beam mode, where the ^4I9/2 → ^4G5/2, ^2G7/2 transitions[34] were monitored between 560 and 605 nm with a 0.075 nm interval and 1.0 nm spectral bandwidth. Changes in the optical absorption characteristics of ^243Am^3+ and ^248Cm^3+ were monitored using a Flame-S-VIS–NIR-ES spectrometer coupled to a DH-2000-BAL dual-mode light source (Ocean Optics) with a single 1 cm semimicro quartz cuvette (Starna). The light source and spectrometer were optically coupled to the CUV sample (Ocean Optics) holder using 2 m fiberoptics (200 μm) and the parameters for acquisition were 0.369 nm interval and 1000 scans averaged with an integration time/scan 1.08 ms (total acquisition time ~ 1 s). The complexation of Am^3+ with the ligands was monitored in the 495–525 nm spectral region, looking at the ^7F0′ → ^5L6′ transition[23],[35]. For Cm^3+, ligand complexation was monitored in the 365–410 nm spectral region, looking at the ^8S7/2 → ^2Ji (i = {15}, {13,9}, {11,17}) manifold transitions[24],[25],[36]. Changes in aqueous p[H^+] were monitored throughout each titration step using a Gran-calibrated Orion Ross Semi-micro glass electrode. Baseline correction was applied to all datasets and was typically a simple linear subtraction. However, in the case of the ^248Cm/H4pypa-peg spectra, the tail end of the ligand absorption overlapped the hypersensitive Cm peaks. In this case the background correction was applied using a 5th-order empirical polynomial. Finally, the spectroscopic data was analyzed using the HypSpec software package[33],[37]. Full details of the titrand and titrant solutions for each titration are included in the Supplemental Information.
The coordination of Nd^3+ by H4octapa and H4pypa-peg was also studied using spectroscopic methods. Figures 5A, B show the collected spectrophotometric signatures for H4octapa and H4pypa-peg, respectively.4 M^3++L^4-⇆ML^-β101=ML^-/[M^3+]L^4- 5 M^3++H^++L^4-⇆MHLaqβ111=MHLaq/[M^3+L^4-H^+]
Optical absorption features of ^4I9/2 → ^4G5/2, ^2G7/2 transitions for Nd^3+ are perturbed due to the introduction of increasing quantities of complexants, resulting in characteristic red-shifted changes. In Fig. 5A a broad absorption band with λmax = 577 nm is distinctly different to the optical absorption of free Nd^3+ metal in Fig. 5B. The differences can be attributed to the nitrate complexation of Nd^3+ as the spectrophotometric titration with H4octapa was performed in 2.0 M (Na^+/H^+)NO3. […] The HypSpec interpretation of the Nd/pypa-peg titration points to the presence of three absorbing species: Nd^3+, NdHL(aq), and NdL^−. The conditional stability constants obtained spectroscopically are listed in Table 3, showing good agreement with the stability constants determined using potentiometry. The complex stability constants for structurally similar APC ligands found in the literature are also presented (H4pypa[18] and H4py4pa[57]).
2. Spectrophotometric titration parameters
Nd3+: The titrand solution consisting of 1.980 mL of 7.57 mM Nd(ClO4)3 at p[H+] = 1.61 was blended with 1.965 mL of titrant solution containing 7.62 mM Nd3+, 18.57 mM H4octapa, […]
Am3+: The titrand solution consisting of 0.842 mL of 0.810 mM Am(ClO4)3 at p[H+] =1.66 was blended with 0.811 mL of titrant solution containing 0.815 mM Am3+, 8.95 mM H4octapa, at p[H+] ≈ 5.0 – 6.0.
Nd3+: The titrand solution consisting of 0.801 mL of 9.82 mM Nd(ClO4)3 at p[H+] = 1.61 was blended with 1.176 mL of titrant solution containing 9.91 mM Nd3+ and 24.58 mM H4pypa-peg in with p[H+] ≈ 3.0 – 4.0.
Am3+: The titrand solution consisting of 0.806 mL of 0.791 mM Am(ClO4)3 at p[H+] = 1.41 was blended with 0.787 mL of titrant solution containing 0.801 mM Am3+ and 15.09 mM H4pypa-peg at p[H+] ≈ 5 – 6.
Cm3+: The titrand solution consist ing of 0.809 mL of 1.00 mM Cm(ClO4)3 at p[H+] = 1.34 was […]

For data set [3] the following is noted: cited from earlier work.
For data set [4] the following is noted: cited from earlier work. The source holds these as a separate data set.
Data set [5] can be described thus: Stability constants reported in literature. It counts as binding. The note with it: across the lanthanide series.
The conditions of data set [6]: I = 0.16 M NaCl, uncertainties 1σ; cited from earlier work.
Where [7] appears, read: in-batch spectrophotometric competition at 25 °C, not evaluated at constant I = 0.16 M NaCl.
Where [8] appears, read: potentiometric titrations, I = 0.16 M NaCl, uncertainties 1σ.

The term pKa denotes the negative logarithm of the acid dissociation constant.

Turning to `O=C(O)CN(CCN(CC(=O)O)CC(=O)O)CC(=O)O` [H4edta, ethylenediamine-N,N,N′,N′-tetraacetic acid], the pKa stood at 6.23 in data set [1] (I = 2.0 M (Na+/H+)ClO4 (Table 2), read-out: pKa H2L2-); 2.48 in data set [1] (I = 2.0 M (Na+/H+)ClO4 (Table 2), read-out: pKa H3L-); 2.08 in data set [1] (I = 2.0 M (Na+/H+)ClO4 (Table 2), read-out: pKa H4L(aq)); 8.71 in data set [1] (I = 2.0 M (Na+/H+)ClO4 (Table 2), read-out: pKa HL3-); 6.45 in data set [1] (I = 2.0 M (Na+/H+)ClO4 at 20.0 °C, read-out: pKa H2L species); 2.49 in data set [1] (I = 2.0 M (Na+/H+)ClO4 at 20.0 °C, read-out: pKa H3L species). In addition, the pKa in data set [1] (I = 2.0 M (Na+/H+)ClO4 at 20.0 °C, read-out: pKa H4L species) worked out at 2.02; in data set [1] (I = 2.0 M (Na+/H+)ClO4 at 20.0 °C, read-out: pKa HL species) it was 8.81. For the same molecule, the “logβ101 (ML), Nd” value in data set [2] was 14.66(1).
As to `O=C(O)CN(Cc1cccc(CN(CC(=O)O)Cc2cccc(C(=O)O)n2)n1)Cc1cccc(C(=O)O)n1` [H4pypa], the “logK111, Lu” value in data set [3] (setting [7]) is 3.60 (6)*. Further, the “logβ101 (ML), Lu” value in data set [3] (setting [8]) is given as 22.20 (2). Further, in data set [4] (setting [7]), the “logK111, La” value is on record as 3.24 (5)*. For the same molecule, the “logβ101 (ML), La” value in data set [4] (setting [8]) is listed as 19.54 (2). For the same molecule, the “cross-lanthanide stability increase for ML- complexes” value in data set [5] is recorded as 1000 fold. In data set [6], the “pKa H2L2-” value was 6.78 (1), the “pKa H3L-” value was 3.69 (1), the “pKa H4L(aq)” value is given as 3.02 (1) and the “pKa H5L+” value is 2.23 (2). Also, in data set [6], the “pKa H6L2+” value is listed as 2.06 (6), the “pKa H7L3+” value is listed as 1.70 (2) and the “pKa HL3-” value was 7.78 (1).
